Laboratory results reported in patent US11046699B2, “Pyrazolo-pyrimidin-amino-cycloalkyl compounds and their therapeutic uses” (RAPT THERAPEUTICS, INC., priority 2018, dated 2021).

What follows are compounds tested against GCN2 (Homo sapiens, UniProt Q9P2K8) (assay: GCN2 enzymatic endpoint assay: phosphorylation of GFP-eIF2α measured by TR-FRET (Lanthascreen)). Conditions: tested as described in Example 77; compound and/or hydrochloride, dihydrochloride or trifluoroacetic acid salt; read-out: IC 50 Activity.
GCN2, sequence (Q9P2K8 whole entry): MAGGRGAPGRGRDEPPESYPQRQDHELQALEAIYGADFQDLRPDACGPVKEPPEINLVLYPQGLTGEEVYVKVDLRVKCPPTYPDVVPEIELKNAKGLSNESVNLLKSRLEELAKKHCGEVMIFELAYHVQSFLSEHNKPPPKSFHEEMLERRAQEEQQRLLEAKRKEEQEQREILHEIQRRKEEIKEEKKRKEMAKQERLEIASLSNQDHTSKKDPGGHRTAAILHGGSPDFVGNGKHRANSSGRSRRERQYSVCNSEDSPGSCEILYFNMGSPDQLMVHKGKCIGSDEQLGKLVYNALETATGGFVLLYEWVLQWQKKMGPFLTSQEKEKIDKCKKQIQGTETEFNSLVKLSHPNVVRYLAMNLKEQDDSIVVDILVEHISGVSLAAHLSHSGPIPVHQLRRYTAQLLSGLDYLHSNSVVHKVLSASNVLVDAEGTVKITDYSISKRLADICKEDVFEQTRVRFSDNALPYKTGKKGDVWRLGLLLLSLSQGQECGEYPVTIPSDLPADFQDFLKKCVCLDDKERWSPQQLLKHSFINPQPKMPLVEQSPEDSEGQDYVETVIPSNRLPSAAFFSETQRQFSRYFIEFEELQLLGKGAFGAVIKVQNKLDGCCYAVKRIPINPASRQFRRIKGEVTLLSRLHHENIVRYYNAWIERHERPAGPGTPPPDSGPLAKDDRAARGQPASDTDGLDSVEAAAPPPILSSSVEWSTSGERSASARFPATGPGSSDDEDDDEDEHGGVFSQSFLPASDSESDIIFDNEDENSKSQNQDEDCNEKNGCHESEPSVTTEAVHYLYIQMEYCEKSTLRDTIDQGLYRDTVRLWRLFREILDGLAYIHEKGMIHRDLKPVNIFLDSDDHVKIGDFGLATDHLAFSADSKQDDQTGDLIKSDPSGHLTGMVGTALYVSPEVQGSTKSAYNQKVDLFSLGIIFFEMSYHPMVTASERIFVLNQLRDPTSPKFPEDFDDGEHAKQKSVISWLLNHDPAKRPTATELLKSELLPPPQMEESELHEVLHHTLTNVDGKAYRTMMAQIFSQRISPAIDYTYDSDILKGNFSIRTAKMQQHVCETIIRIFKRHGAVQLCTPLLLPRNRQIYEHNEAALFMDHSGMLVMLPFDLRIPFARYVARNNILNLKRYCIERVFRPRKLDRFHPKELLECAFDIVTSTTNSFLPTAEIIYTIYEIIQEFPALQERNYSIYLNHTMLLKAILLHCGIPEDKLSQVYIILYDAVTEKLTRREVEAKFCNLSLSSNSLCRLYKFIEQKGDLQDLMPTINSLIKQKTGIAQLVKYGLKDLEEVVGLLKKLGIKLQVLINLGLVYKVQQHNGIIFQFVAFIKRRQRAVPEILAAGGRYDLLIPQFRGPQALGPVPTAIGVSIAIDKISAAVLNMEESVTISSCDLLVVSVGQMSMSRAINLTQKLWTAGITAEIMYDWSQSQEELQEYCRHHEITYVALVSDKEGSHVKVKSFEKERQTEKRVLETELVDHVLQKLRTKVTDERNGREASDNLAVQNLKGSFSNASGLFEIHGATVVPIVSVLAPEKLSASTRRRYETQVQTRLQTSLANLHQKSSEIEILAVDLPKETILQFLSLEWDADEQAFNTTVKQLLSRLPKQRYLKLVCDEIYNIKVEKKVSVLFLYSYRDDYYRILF
Type: biochemical
Summary of the method: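 Endpoint kinase reaction with 2 μM ATP and 80 nM GFP-labelled eIF2α substrate, run at room temperature for 90 min, then stopped with EDTA. Phospho-substrate detected by terbium-antibody TR-FRET, activity taken as the 520/495 nm emission ratio.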

Structure (SMILES)	IC50 [nM]
CNC(=O)[C@]1(C)CC[C@@H](Nc2ncc3c(Br)nn(-c4ccc5c(=O)n(C)c(=O)n(C)c5c4)c3n2)C1 [(1R,3R)-3-[[3-bromo-1-(1,3-dimethyl-2,4-dioxo-quinazolin-7-yl)pyrazolo [3,4-d]pyrimidin-6-yl]amino]-N,1-dimethyl-cyclopentanecarboxamide]	< 25
CNC(=O)[C@@H]1CC[C@@H](Nc2ncc3c(Br)nn(-c4ccc5c(C)nn(C)c5c4)c3n2)C1 [(1R,3R)-3-[[3-bromo-1-(1,3-dimethylindazol-6-yl)pyrazolo[3,4-d]pyrimidin-6-yl]amino]-N-methyl-cyclopentanecarboxamide]	25 to 200
CNC(=O)[C@]1(C)CC[C@@H](Nc2ncc3c(Br)nn(-c4ccc5c(c4)C(=O)NC5=O)c3n2)C1 [(1R,3R)-3-[[3-bromo-1-(1,3-dioxo-isoindolin-5-yl)pyrazolo[3,4-d]pyrimidin-6-yl]amino]-N,1-dimethyl-cyclopentanecarboxamide]	25 to 200
CNC(=O)[C@]1(C)CC[C@@H](Nc2ncc3c(Br)nn(-c4ccc5c(c4)n(C)c(=O)c(=O)n5C)c3n2)C1 [(1R,3R)-3-[[3-bromo-1-(1,4-dimethyl-2,3-dioxo-quinoxalin-6-yl)pyrazolo [3,4-d]pyrimidin-6-yl]amino]-N,1-dimethyl-cyclopentanecarboxamide]	25 to 200
CNC(=O)[C@@H]1CC[C@@H](Nc2ncc3c(Br)nn(-c4cnc5ncccc5c4)c3n2)C1 [(1R,3R)-3-[[3-bromo-1-(1,8-naphthyridin-3-yl)pyrazolo[3,4-d]pyrimidin-6-yl]amino]-N-methyl-cyclopentanecarboxamide]	25 to 200
CNC(=O)[C@]1(C)CC[C@@H](Nc2ncc3c(Br)nn(-c4ccc5c(c4)OC(C)(C)C(=O)N5C)c3n2)C1 [(1R,3R)-3-[[3-bromo-1-(2,2,4-trimethyl-3-oxo-1,4-benzoxazin-7-yl)pyrazolo [3,4-d]pyrimidin-6-yl]amino]-N,1-dimethyl-cyclopentanecarboxamide]	25 to 200
CNC(=O)[C@]1(C)CC[C@@H](Nc2ncc3c(Br)nn(-c4ccc5c(c4)CS(=O)(=O)C5)c3n2)C1 [(1R,3R)-3-[[3-bromo-1-(2,2-dioxo-1,3-dihydro-2-benzothiophen-5-yl)pyrazolo[3,4-d]pyrimidin-6-yl]amino]-N,1-dimethyl-cyclopentanecarboxamide]	25 to 200
CNC(=O)[C@]1(C)CC[C@@H](Nc2ncc3c(Br)nn(-c4ccc5c(c4)C(=O)C(=O)N5)c3n2)C1 [(1R,3R)-3-[[3-bromo-1-(2,3-dioxo-indolin-5-yl)pyrazolo[3,4-d]pyrimidin-6-yl]amino]-N,1-dimethyl-cyclo-pentanecarboxamide]	25 to 200
CNC(=O)[C@]1(C)CC[C@@H](Nc2ncc3c(Br)nn(-c4ccc5nc(N)nc(N)c5c4)c3n2)C1 [(1R,3R)-3-[[3-bromo-1-(2,4-diamino-quinazolin-6-yl)pyrazolo[3,4-d]pyrimidin-6-yl]amino]-N,1-dimethyl-cyclopentane-carboxamide; 2,2,2-trifluoroacetic acid]	25 to 200
CNC(=O)[C@]1(C)CC[C@@H](Nc2ncc3c(Br)nn(-c4ccc5c(c4)OC(C)C(=O)N5C)c3n2)C1 (stereo partly drawn) [(1R,3R)-3-[[3-bromo-1-(2,4-dimethyl-3-oxo-1,4-benzoxazin-7-yl)pyrazolo [3,4-d]pyrimidin-6-yl]amino]-N,1-dimethyl-cyclopentanecarboxamide]	25 to 200
CCS(=O)(=O)N1Cc2ccc(-n3nc(Br)c4cnc(N[C@@H]5CC[C@@](C)(C(=O)NC)C5)nc43)cc2C1 [(1R,3R)-3-[[3-bromo-1-(2-ethylsulfonyl-isoindolin-5-yl)pyrazolo[3,4-d]pyrimidin-6-yl]amino]-N,1-dimethyl-cyclopentane-carboxamide]	25 to 200
CNC(=O)[C@]1(C)CC[C@@H](Nc2ncc3c(Br)nn(-c4ccc5c(c4)CN(C=O)CC5)c3n2)C1 [(1R,3R)-3-[[3-bromo-1-(2-formyl-3,4-dihydro-1H-isoquinolin-7-yl)pyrazolo [3,4-d]pyrimidin-6-yl]amino]-N,1-dimethyl-cyclopentanecarboxamide]	25 to 200

More lines, now with the values ahead:

IC50 [nM]	Structure (SMILES)
25 to 200	CNC(=O)[C@]1(C)CC[C@@H](Nc2ncc3c(Br)nn(-c4cc(CCNC(C)=O)c5ncccc5c4)c3n2)C1 [(1R,3R)-3-[[1-[8-(2-acetamidoethyl)-6-quinolyl]-3-bromo-pyrazolo[3,4-d]pyrimidin-6-yl]amino]-N,1-dimethyl-cyclopentane-carboxamide]
25 to 200	CNC(=O)[C@]1(C)CC[C@@H](Nc2ncc3c(Br)nn(-c4cc(CCN)c5ncc(C#N)cc5c4)c3n2)C1 [(1R,3R)-3-[[1-[8-(2-aminoethyl)-3-cyano-6-quinolyl]-3-bromo-pyrazolo[3,4-d]pyrimidin-6-yl]amino]-N,1-dimethyl-cyclopentane-carboxamide]
25 to 200	CNC(=O)[C@]1(C)CC[C@@H](Nc2ncc3c(Br)nn(-c4cnc5c(CCN)cccc5c4)c3n2)C1 [(1R,3R)-3-[[1-[8-(2-aminoethyl)-3-quinolyl]-3-bromo-pyrazolo[3,4-d]pyrimidin-6-yl]amino]-N,1-dimethyl-cyclopentane-carboxamide]
< 25	C[C@@]1(C(=O)O)CC[C@@H](Nc2ncc3c(Br)nn(-c4cc(CCN)c5ncccc5c4)c3n2)C1 [(1R,3R)-3-[[1-[8-(2-aminoethyl)-6-quinolyl]-3-bromo-pyrazolo[3,4-d]pyrimidin-6-yl]amino]-1-methyl-cyclopentanecarboxylic acid]
25 to 200	CNC(=O)[C@]1(C)CC[C@@H](Nc2ncc3c(Br)nn(-c4cc(CCN)c5nccnc5c4)c3n2)C1 [(1R,3R)-3-[[1-[8-(2-aminoethyl)quinoxalin-6-yl]-3-bromo-pyrazolo[3,4-d]pyrimidin-6-yl]amino]-N,1-dimethyl-cyclopentane-carboxamide]
< 25	CNC(=O)[C@]1(C)CC[C@@H](Nc2ncc3c(Br)nn(-c4cc(NC(=O)CCN)c5ncccc5c4)c3n2)C1 [(1R,3R)-3-[[1-[8-(3-aminopropanoylamino)-6-quinolyl]-3-bromo-pyrazolo[3,4-d]pyrimidin-6-yl]amino]-N,1-dimethyl-cyclopentanecarboxamide]
25 to 200	CNC(=O)[C@]1(C)CC[C@@H](Nc2ncc3c(Br)nn(-c4cnc5c(CCCN)cccc5c4)c3n2)C1 [(1R,3R)-3-[[1-[8-(3-aminopropyl)-3-quinolyl]-3-bromo-pyrazolo[3,4-d]pyrimidin-6-yl]amino]-N,1-dimethyl-cyclopentanecarboxamide]
25 to 200	CNC(=O)[C@]1(C)CC[C@@H](Nc2ncc3c(Br)nn(-c4cc(CCCN)c5ncccc5c4)c3n2)C1 [(1R,3R)-3-[[1-[8-(3-aminopropyl)-6-quinolyl]-3-bromo-pyrazolo[3,4-d]pyrimidin-6-yl]amino]-N,1-dimethyl-cyclopentanecarboxamide]
25 to 200	CNC(=O)[C@]1(C)CC[C@@H](Nc2ncc3c(Br)nn(-c4cc(NC(=O)CCCN)c5ncccc5c4)c3n2)C1 [(1R,3R)-3-[[1-[8-(4-aminobutanoylamino)-6-quinolyl]-3-bromo-pyrazolo[3,4-d]pyrimidin-6-yl]amino]-N,1-dimethyl-cyclopentanecarboxamide]
25 to 200	CNC(=O)[C@]1(C)CC[C@@H](Nc2ncc3c(Br)nn(-c4cc(CN)c5nccnc5c4)c3n2)C1 [(1R,3R)-3-[[1-[8-(aminomethyl)quinoxalin-6-yl]-3-bromo-pyrazolo[3,4-d]pyrimidin-6-yl]amino]-N,1-dimethyl-cyclopentane-carboxamide]
25 to 200	CNC(=O)[C@]1(C)CC[C@@H](Nc2ncc3c(Br)nn(-c4cc(C5CNC5)c5ncccc5c4)c3n2)C1 [(1R,3R)-3-[[1-[8-(azetidin-3-yl)-6-quinolyl]-3-bromo-pyrazolo[3,4-d]pyrimidin-6-yl]amino]-N,1-dimethyl-cyclopentane-carboxamide]
25 to 200	CNC(=O)[C@]1(C)CC[C@@H](Nc2ncc3c(Br)nn(-c4cc(C5(CN)CC5)c5ncccc5c4)c3n2)C1 [(1R,3R)-3-[[1-[8-[1-(aminomethyl)cyclo-propyl]-6-quinolyl]-3-bromo-pyrazolo [3,4-d]pyrimidin-6-yl]amino]-N,1-dimethyl-cyclopentanecarboxamide]
25 to 200	CNC(=O)[C@]1(C)CC[C@@H](Nc2ncc3c(Br)nn(-c4cc(CC5(N)CC5)c5ncccc5c4)c3n2)C1 [(1R,3R)-3-[[1-[8-[(1-aminocyclopropyl)methyl]-6-quinolyl]-3-bromo-pyrazolo [3,4-d]pyrimidin-6-yl]amino]-N,1-dimethyl-cyclopentanecarboxamide]
25 to 200	CNC(=O)[C@]1(C)CC[C@@H](Nc2ncc3c(Br)nn(-c4cc([C@H](C)N)c5nccnc5c4)c3n2)C1 [(1R,3R)-3-[[1-[8-[(1S)-1-aminoethyl]quinoxalin-6-yl]-3-bromo-pyrazolo [3,4-d]pyrimidin-6-yl]amino]-N,1-dimethyl-cyclopentanecarboxamide]
25 to 200	CNC(=O)[C@]1(C)CC[C@@H](Nc2ncc3c(Br)nn(-c4cc(NC(=O)CN)c5ncccc5c4)c3n2)C1 [(1R,3R)-3-[[1-[8-[(2-aminoacetyl)amino]-6-quinolyl]-3-bromo-pyrazolo[3,4-d]pyrimidin-6-yl]amino]-N,1-dimethyl-cyclopentanecarboxamide]
25 to 200	CNC(=O)[C@]1(C)CC[C@@H](Nc2ncc3c(Br)nn(-c4ccc5c(c4)CCCN5)c3n2)C1 [(1R,3R)-3-[[3-bromo-1-(1,2,3,4-tetra-hydroquinolin-6-yl)pyrazolo[3,4-d]pyrimidin-6-yl]amino]-N,1-dimethyl-cyclopentanecarboxamide]
25 to 200	CNC(=O)[C@]1(C)CC[C@@H](Nc2ncc3c(Br)nn(-c4cc5cccnc5cn4)c3n2)C1 [(1R,3R)-3-[[3-bromo-1-(1,7-naphthyridin-6-yl)pyrazolo[3,4-d]pyrimidin-6-yl]amino]-N,1-dimethyl-cyclopentane-carboxamide]
25 to 200	CNC(=O)[C@]1(C)CC[C@@H](Nc2ncc3c(Br)nn(-c4ccc5c(c4)CCNC5=O)c3n2)C1 [(1R,3R)-3-[[3-bromo-1-(1-oxo-3,4-dihydro-2H-isoquinolin-6-yl)pyrazolo[3,4-d]pyrimidin-6-yl]amino]-N,1-dimethyl-cyclopentanecarboxamide]
